Data: patent US10085955B2, “Methods and compositions for treatment of demyelinating diseases” (Pathologica LLC, priority 2013, dated 2018)
Like-named read-outs stand apart in the source and are kept apart here.

What was measured:
[1] = Multi-species allometric scaling, predicted human pharmacokinetic parameters; parameters: species or system humans; settings: based on Mouse, Dog, Rhesus
Text: Multi-species allometric scaling based on pharmacokinetic parameters disclosed in Tables 2 and 3 was employed to calculate predicted pharmacokinetic parameters in humans according to methods known in the art. See, e.g., Ings R M, “Interspecies scaling and comparisons in drug development and toxicokinetics,” Xenobiotica, 1990 November; 20(11):1201-31 and Khor, S P et al., “Dihydropyrimidine dehydrogenase inactivation and 5-fluorouracil pharmacokinetics: allometric scaling of animal data, pharmacokinetics and toxicodynamics of 5-fluorouracil in humans,” Cancer Chemother Pharmacol (1997) 39(3): 833-38. Expected values are given below in Tables 6 and 7.

[2] = parameters: species or system DBA/1 mice; settings: male, DBA/1, mouse, in vivo
Method: Twenty-four male DBA/1 mice weighing 19.5-24.7 g and aged 7-9 weeks administered the test article, MGBG, as either a single bolus intravenous dose via a lateral tail vein of 1 mg/kg (Group 1, n=12) or as a single oral gavage dose of 10 mg/kg (Group 2, n=12). Each dose group consisted of 4 cohorts of 3 animals each. Group 1 was sampled at 5, 15, and 30 minutes after dosing; and 1, 2, 4, 8, and 24 hours after dosing. Group 2 was sampled at 1, 2, 4, 8, 12, 24, and 36 hours after dosing. Starting with the first time point, a new cohort was sampled at each successive time point up to the 1-hour (Group 1) or […] (Group 2) time point. The order of sampling among the cohorts was repeated for the subsequent time points (some cohorts may have been bled only once). The second bleed for each cohort was terminal. Animals were sacrificed via CO2 inhalation anesthesia after final blood collection.
The samples were centrifuged under refrigerated conditions following completion of sample collection at each interval. The resulting plasma was separated and stored frozen at approximately −70° C. until analysis. Analysis was performed by LC/MS/MS. Pharmacokinetic analyses were performed on the mean MGBG plasma concentration versus time data using the non-compartmental approach (linear trapezoidal rule for AUC calculations). The WinNonlin sparse sampling tool was used for PK calculations.
The second method used to convert the efficacious 60 mg/kg/day dose in mice to an equivalent dose in humans was based more directly on allometric scaling. Data from an MGBG pharmacokinetic study consisting of a 10 mg/kg oral dose in mice was modeled in a simulation to determine the theoretical AUCINF value for a dosing regimen of 30 mg/kg PO BID, which was 9050 h*ng/mL. Next, predicted human clearance values as determined by single- and multi-species allometric scaling were used to estimate doses likely to produce an exposure in humans (AUCINF) similar to that of the 60 mg/kg/day in mice. […] Using multi-species allometric scaling, the predicted human equivalent dose is about 4.2 mg/kg/day.

[3] = Multi-dose rat pharmacokinetic and tolerability study; type: in vivo, Sprague Dawley rats; settings: for AUC0-12 / AUC0-24 / Cmax / Tmax: PO twice daily; for fold increase in mean AUCall compared to Study Day 1: repeat twice-daily PO
Method: The purpose of this study was to determine the pharmacokinetic (PK) properties and tolerability of MGBG in rats. Additionally, recovery from any toxic effects was assessed after a seven day non-dosing period.
Three per group of male Sprague Dawley (CD® IGS, Charles River) aged 7-9 weeks and weighing 222.7-252.0 g were administered by oral (PO) gavage, twice daily, at 10, 20, or 30 mg/kg/dose (20, 40, or 60 mg/kg/day) for seven consecutive days. A washout period of seven days followed. Collection of approximately 200 μL of whole blood was collected from the tail vein of all animals in Groups 5, 6, and 7 were bled at six (Day 1), seven (Day 7), or one (Days 9 through 15) time point(s), respectively. Whole blood samples were collected in a lithium heparin microtainer and processed to plasma by centrifugation. Plasma was frozen at −70° C. Pharmacokinetic analyses were performed on the individual animal plasma concentration versus time data for MGBG using WinNonlin (linear trapezoidal rule for AUC calculations). Nominal dose values and sampling times were used for calculations. For Study Day 7, the reported values for MGBG concentrations at time zero were used in the calculations of AUC. Study Day 1 disposition parameters were not reported due to insufficient terminal phase data to adequately characterize these parameters.

[4] = Rhesus macaque single-dose pharmacokinetics; type: in vivo, rhesus monkeys; settings: plasma, mean
Method: Two groups of three male rhesus monkeys were fasted overnight before being administered the test article, MGBG, as either a single bolus intravenous dose of 1 mg/kg (Group 1) or as a single oral gavage dose of 10 mg/kg (Group 2). Dose formulation analysis verified administered dose solutions as within 14% of targeted concentrations of 1 and 10 mg/kg for Groups 1 and 2, respectively.
Blood samples were collected into tubes containing lithium heparin from the femoral vein/artery (approximately 1.0 mL) for plasma MGBG concentration measurement from all intravenously dosed animals prior to dosing and at approximately T=0.083 (5 min), 0.25 (15 min), 0.5 (30 min), 1, 2, 4, 8, and 24 hours after dosing. Blood samples for plasma MGBG concentration measurement were collected from all orally dosed animals prior to dosing at approximately T=1, 2, 4, 8, 12, 24, and 36 hours after dosing. Food was also withheld through the first four hours of blood sample collection.
The samples were centrifuged under refrigerated conditions following completion of sample collection at each interval. The resulting plasma was separated and stored frozen at approximately −70° C. until analysis.
PK analysis was performed on the individual plasma concentration-time profiles for MGBG using the WinNonlin non-compartmental approach (linear trapezoidal rule for AUC calculations). Nominal dose values and sampling times were used for calculations. All MGBG plasma concentration measurements reported as BQL (<2.51 ng/mL) were set equal to zero for the purpose of analysis. Following IV and PO administration of MGBG, plasma PK disposition parameters were calculated using the WinNonlin default selection criteria for the selection of the Lambda Z.
Consequently, a model-dependent two-compartmental analysis was used to calculate bioavailability.

[5] = oral gavage 10 mg/kg single dose

With CC(/C=N/NC(=N)N)=N\NC(=N)N [MGBG, 1,1′ [methylethanediylidene]dinitrilodiguanidine] the CL ([1]; IV) was 7.9 mL/min/kg, the VSS ([1]; IV) was 9.1 L/kg and the t1/2 ([1]; IV) was 13.3 h. It also gave a CL ([1]; IV, Rat) of 7.7 mL/min/kg, a VSS ([1]; IV, Rat) of 9.0 L/kg and a t1/2 ([1]; IV, Rat) of 13.4 h. It also gave a CL ([1]; ORAL) of 20.9 mL/min/kg, a VSS ([1]; ORAL) of 41.6 L/kg and a t1/2 ([1]; ORAL) of 23.0 h. For the same compound, the CL ([1]; ORAL, Rat) was 21.0 mL/min/kg, the VSS ([1]; ORAL, Rat) was 42.4 L/kg and the t1/2 ([1]; ORAL, Rat) was 23.3 h. For the same compound, the Clobs ([2]; iv, 1 mg/kg) was 49.6 mL/min/kg, the VSSobs ([2]; iv, 1 mg/kg) was 38.3 L/kg and the Clobs ([2]; po, 10 mg/kg) was 6.68 mL/min/kg. For the same compound, the Vd ([2]; po, 10 mg/kg) was 38.3 L/kg, the “hematology differences versus control group” value ([3]; 60 mg/kg/day dose group, not thought to be adverse) was “lower reticulocyte count and percentage” and the “gross or microscopic lesions at terminal sacrifice” value ([3]; PO twice daily 7 days, 20-60 mg/kg/day) was “No gross or microscopic lesions”. It also gave an AUC0-12 ([3]; 20 mg/kg/day, Day 7) of 1030 ng·h/mL, an AUC0-24 ([3]; 20 mg/kg/day, Day 7) of 2190 ng·h/mL and a Cmax ([3]; 20 mg/kg/day, Day 7) of 117 ng/mL. It also gave a Tmax ([3]; 20 mg/kg/day, Day 7) of 14 h, an AUC0-12 ([3]; 40 mg/kg/day, Day 7) of 1800 ng·h/mL and an AUC0-24 ([3]; 40 mg/kg/day, Day 7) of 3690 ng·h/mL. The Cmax ([3]; 40 mg/kg/day, Day 7) was 194 ng/mL, the Tmax ([3]; 40 mg/kg/day, Day 7) was 9.33 h and the Tmax ([3]; 60 mg/kg/day, Day 1) was 3.33 h. For the same compound, the AUC0-12 ([3]; 60 mg/kg/day, Day 7) was 3130 ng·h/mL, the AUC0-24 ([3]; 60 mg/kg/day, Day 7) was 6040 ng·h/mL and the Cmax ([3]; 60 mg/kg/day, Day 7) was 337 ng/mL. For the same compound, the Tmax ([3]; 60 mg/kg/day, Day 7) was 7.33 h, the “fold increase in mean AUCall compared to Study Day 1” value (from here on “fold increase in mean AUCall”) ([3]; 20 mg/kg/day) was 3.77 fold and the “fold increase in mean AUCall” value ([3]; 40 mg/kg/day) was 4.03 fold. For the same compound, the “fold increase in mean AUCall” value ([3]; 60 mg/kg/day) was 3.68 fold, the Clobs ([4]; IV 1 mg/kg single bolus) was 13.7 mL/min/kg and the VSSobs ([4]; IV 1 mg/kg single bolus) was 13.2 L/kg. For the same compound, the Clobs [4, 5] was 6.63 mL/min/kg and the Vd [4, 5] was 13.2 L/kg.
